Measurements taken from patent publication US20080292627A1, “Compositions and Methods for Treating Mood and Anxiety Disorders” (THE BOARD OF TRUSTEES OF THE UNIVERSITY OF ILLINOIS, priority 2005, published 2008).

How the values were obtained:
tubulin [1] = settings: cited from earlier work
tubulin [2] = test: SPOT membrane peptide array, tubulin binding to immobilized Gsα-derived peptides; parameters: species or system Ovine; settings: equimolar Gsα (150 nM), 37° C., 1 hour; SPOT membrane 1
From the text: Peptides were synthesized on to a cellulose membrane with PEG spacer (8×12 cm^2) (AIMS Scientific Products, Braunschweig, Germany) via the C-terminal amino acid in sequential spots by the use of a SPOT synthesis kit (SIGMA genosys, St. Louis, Mo.) (Frank, J. Immunol. Methods 267: 13-26, 2002; Frank, Tetrahedron 48: 9217-9232, 1992). The peptides corresponded to the amino acid sequence of Gsα (Genbank accession number P04895, homo sapiens, Gsα long form; SEQ ID NO: 15), which was divided into overlapping peptides (12 amino acids in length with 7 amino acid overlap between sequential peptide, 73 total spots). Spot 1 corresponded to amino acids 1-12 and Spot 2 corresponded to residues 6-17 in the primary amino acid sequence (SEQ ID NO: 15), etc. […]
Ovine brain tubulin was prepared as previously described (Shelanski et al., Proc. Natl. Acad. Sci. USA. 70: 765-768, 1973). […] Purity of the prepared tubulin, as determined by SDS gel electrophoresis, was always greater than 95%. […] Protein concentrations were determined by Coomasie Blue binding (BioRad Protein Assay) with Bovine Serum Albumin as a standard (Bradford, Anal. Biochem. 72: 248-254, 1976). […]

effect of prior incubation of tubulin with Gsα on tubulin binding to the immobilized peptides (tubulin [2]): prevented tubulin from binding
Substance: Gsα: stimulatory G protein α subunit of adenylyl cyclase
binding to tubulin (in words) (tubulin [1]): bind with a high affinity
Kd (tubulin [1]; read-out: KD of tubulin binding): ~130 nM
